In PubChem BioAssay AID248 (DTP/NCI, 2004):
Several values for one entry are separate records, joined by “and”; a condition that tells them apart may be missing. Equal entries are not always repeated. Toxic doses and inconclusive results are not listed. No stated cut-off is given here; in the data, active means T/C of 150% or more; inactive means T/C below 125%.

System: L1210 leukemia ip in BDF1 mice, survival T/C
Test: NCI In Vivo Anticancer Drug Screen. Data for tumor model L1210 Leukemia (intraperitoneal) in B6D2F1 (BDF1) mice
Conditions: endpoint: mean survival time, higher = longer survival
Outline: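 Transplanted-tumor mice were given test agent; controls received vehicle only. Survival readings from the two groups were divided (treated over control).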

[1] = dose: 100.0 mg/kg/injection, schedule: Q04DX002 (ip), vehicle: saline with Tween-80
[2] = dose: 200.0 mg/kg/injection, schedule: Q04DX002 (ip), vehicle: saline with Tween-80
[3] = dose: 400.0 mg/kg/injection, schedule: Q04DX002 (ip), vehicle: saline with Tween-80
[4] = dose: 100.0 mg/kg/injection, schedule: Q01DX009 (ip), vehicle: Klucel (hydroxypropylcellulose) (HPC)
[5] = dose: 100.0 mg/kg/injection, schedule: Q04DX003 (ip), vehicle: Klucel (hydroxypropylcellulose) (HPC)
[6] = dose: 200.0 mg/kg/injection, schedule: Q01DX009 (ip), vehicle: Klucel (hydroxypropylcellulose) (HPC)
[7] = dose: 200.0 mg/kg/injection, schedule: Q04DX003 (ip), vehicle: Klucel (hydroxypropylcellulose) (HPC)
[8] = dose: 100.0 mg/kg/injection, schedule: Q04DX002 (ip), vehicle: Klucel (hydroxypropylcellulose) (HPC)
[9] = dose: 200.0 mg/kg/injection, schedule: Q04DX002 (ip), vehicle: Klucel (hydroxypropylcellulose) (HPC)
[10] = dose: 400.0 mg/kg/injection, schedule: Q04DX002 (ip), vehicle: Klucel (hydroxypropylcellulose) (HPC)
[11] = dose: 100.0 mg/kg/injection, schedule: Q01DX009 (ip), vehicle: saline
[12] = dose: 200.0 mg/kg/injection, schedule: Q01DX009 (ip), vehicle: saline
[13] = dose: 100.0 mg/kg/injection, schedule: Q04DX003 (ip), vehicle: saline with Tween-80
[14] = dose: 200.0 mg/kg/injection, schedule: Q04DX003 (ip), vehicle: saline with Tween-80
[15] = dose: 400.0 mg/kg/injection, schedule: Q01DX009 (ip), vehicle: Klucel (hydroxypropylcellulose) (HPC)
[16] = dose: 400.0 mg/kg/injection, schedule: Q04DX003 (ip), vehicle: Klucel (hydroxypropylcellulose) (HPC)
[17] = dose: 100.0 mg/kg/injection, schedule: Q01DX001 (ip), vehicle: saline
[18] = dose: 100.0 mg/kg/injection, schedule: Q01DX009 (ip), vehicle: saline with Tween-80
[19] = dose: 200.0 mg/kg/injection, schedule: Q01DX001 (ip), vehicle: saline
[20] = dose: 200.0 mg/kg/injection, schedule: Q01DX009 (ip), vehicle: saline with Tween-80
[21] = dose: 400.0 mg/kg/injection, schedule: Q01DX001 (ip), vehicle: saline
[22] = dose: 400.0 mg/kg/injection, schedule: Q04DX003 (ip), vehicle: saline with Tween-80
[23] = dose: 50.0 mg/kg/injection, schedule: Q01DX009 (ip), vehicle: saline

Measured: T/C

CC(C)CC(=O)/C=C/C=C/c1ccccc1
inactive: [1] 101 % of control | [2] 95 % of control | [3] 111 % of control

O=NN1C(=O)C2CC3CC(C2)CC1C3
inactive: dose: 3.12 mg/kg/injection, schedule: Q01DX009 (ip), vehicle: saline with Tween-80 91 % of control | dose: 6.25 mg/kg/injection, schedule: Q01DX009 (ip), vehicle: saline with Tween-80 107 % of control | dose: 12.5 mg/kg/injection, schedule: Q01DX009 (ip), vehicle: saline with Tween-80 96 % of control

Oc1ccc(C2CCCCC2)c(O)c1
inactive: dose: 50.0 mg/kg/injection, schedule: Q01DX009 (ip), vehicle: Klucel (hydroxypropylcellulose) (HPC) 96 % of control | dose: 50.0 mg/kg/injection, schedule: Q04DX003 (ip), vehicle: Klucel (hydroxypropylcellulose) (HPC) 101 % of control | [4] 96 % of control | [5] 98 % of control | [6] 100 % of control | [7] 103 % of control

CCOC(=O)COc1ccc(-c2ccccc2)cc1Br
inactive: [8] 104 % of control | [9] 104 % of control | [10] 104 % of control

CCOC(=O)NCC(CCN(C)C)(c1cccc2ccccc12)C(C)C (stereo unspecified)
inactive: [11] 98 % of control | [5] 97 % of control | [12] 107 % of control | [7] 97 % of control

FC(F)(F)c1cccc(B2OCCNCCO2)c1
inactive: [13] 106 % of control | [14] 95 % of control

Cc1ccc(N2C=C(c3ccccc3)CC2=O)cc1
inactive: [1] 107 % of control | [2] 100 % of control | [3] 104 % of control

COc1ccc2c(c1)CCC1=C2CCC2(C)C(=O)OC(=O)C12 (stereo unspecified)
inactive: [4] 103 % of control | [5] 102 % of control | [6] 97 % of control | [7] 93 % of control | [15] 101 % of control | [16] 111 % of control

O=C1NC(=O)C(c2ccc(O)cc2)N1 (stereo unspecified)
inactive: dose: 50.0 mg/kg/injection, schedule: Q01DX001 (ip), vehicle: saline 105 % of control | [17] 100 % of control | [18] 91 % of control | [13] 103 % of control | [19] 97 % of control | [20] 87 % of control | [14] 100 % of control | [21] 108 % of control | [22] 94 % of control

Brc1cnc(Br)s1
inactive: dose: 44.0 mg/kg/injection, schedule: Q04DX002 (ip), vehicle: Klucel (hydroxypropylcellulose) (HPC) 97 % of control | dose: 67.0 mg/kg/injection, schedule: Q04DX002 (ip), vehicle: Klucel (hydroxypropylcellulose) (HPC) 109 % of control | [8] 116 % of control | dose: 150.0 mg/kg/injection, schedule: Q04DX002 (ip), vehicle: Klucel (hydroxypropylcellulose) (HPC) 113 % of control

CCOc1nc(Cl)nc2nc[nH]c12
inactive: [17] 102 % of control | [19] 102 % of control | [21] 96 % of control

Cn1c(O)c(N)c(=O)n(C)c1=O
inactive: [23] 98 % of control | [11] 92 % of control

O=C(Nc1ccc([N+](=O)[O-])cn1)Nc1cc([N+](=O)[O-])ccc1F
inactive: dose: 100.0 mg/kg/injection, schedule: Q01DX001 (ip), vehicle: Klucel (hydroxypropylcellulose) (HPC) 93 % of control | [4] 94 % of control and 89 % of control | [8] 95 % of control and 102 % of control | dose: 200.0 mg/kg/injection, schedule: Q01DX001 (ip), vehicle: Klucel (hydroxypropylcellulose) (HPC) 100 % of control | [6] 94 % of control and 89 % of control | [9] 92 % of control and 102 % of control | [7] 87 % of control | dose: 400.0 mg/kg/injection, schedule: Q01DX001 (ip), vehicle: Klucel (hydroxypropylcellulose) (HPC) 94 % of control | [15] 100 % of control | [10] 94 % of control and 95 % of control | [16] 92 % of control

C1=NC(c2ccccc2)=CN(C2CCCCCCC2)C1(c1ccccc1)C1CCCCCCC1 (stereo unspecified)
inactive: dose: 50.0 mg/kg/injection, schedule: Q04DX002 (ip), vehicle: saline 99 % of control | [8] 95 % of control | dose: 100.0 mg/kg/injection, schedule: Q04DX002 (ip), vehicle: saline 99 % of control | [9] 92 % of control | [10] 92 % of control

CCCCNC(=O)N(C1CCCCC1)C1CCCCC1
inactive: [4] 103 % of control | [6] 92 % of control | [15] 92 % of control

CC(=O)N1CCc2cc(N)ccc21
inactive: [20] 103 % of control

O=C(CCCN1CCN(c2ccccc2)CC1)c1ccc(F)cc1
inactive: dose: 12.5 mg/kg/injection, schedule: Q01DX009 (ip), vehicle: saline 122 % of control | dose: 25.0 mg/kg/injection, schedule: Q01DX009 (ip), vehicle: saline 106 % of control | [23] 114 % of control | [11] 111 % of control | [12] 103 % of control

COc1cc(/C=C2\CCC/C(=C\c3ccc(O)c(OC)c3)C2=O)ccc1O
inactive: [5] 93 % of control | [7] 87 % of control

CC1(C)S[C@@H]2[C@H](NC(=O)Cc3ccc([N+](=O)[O-])cc3)CN2[C@H]1N=C=O
inactive: [17] 93 % of control | [19] 91 % of control | [21] 98 % of control

N#CC(C#N)=C1c2ccccc2C(=O)c2ccccc21
inactive: dose: 50.0 mg/kg/injection, schedule: Q01DX001 (ip), vehicle: carboxymethylcellulose (CMC) 104 % of control | dose: 100.0 mg/kg/injection, schedule: Q01DX001 (ip), vehicle: carboxymethylcellulose (CMC) 104 % of control | [13] 97 % of control | dose: 200.0 mg/kg/injection, schedule: Q01DX001 (ip), vehicle: carboxymethylcellulose (CMC) 104 % of control | [14] 98 % of control | dose: 400.0 mg/kg/injection, schedule: Q01DX001 (ip), vehicle: carboxymethylcellulose (CMC) 106 % of control | [22] 87 % of control

OCC1OC(n2c(N3CCOCC3)nc3ccccc32)C(O)C1O (stereo unspecified)
inactive: [17] 115 % of control | [19] 97 % of control | [21] 96 % of control

O=C(O)CS(=O)(=O)Cc1ccccc1
inactive: [13] 97 % of control | [14] 90 % of control

CC1(O)C2CC3CC(C2)CC1C3 (stereo unspecified)
inactive: [8] 113 % of control | [9] 98 % of control and 87 % of control | [10] 94 % of control

CN(C)CCCCCO
inactive: dose: 25.0 mg/kg/injection, schedule: Q01DX009 (ip), vehicle: saline with Tween-80 96 % of control | dose: 50.0 mg/kg/injection, schedule: Q01DX009 (ip), vehicle: saline with Tween-80 102 % of control and 87 % of control | [18] 91 % of control | [13] 97 % of control | [20] 100 % of control | [14] 100 % of control

CCOC(=O)CSc1nc2ccccc2[nH]1
inactive: dose: 100.0 mg/kg/injection, schedule: Q01DX001 (ip), vehicle: saline with Tween-80 97 % of control | dose: 200.0 mg/kg/injection, schedule: Q01DX001 (ip), vehicle: saline with Tween-80 98 % of control | dose: 400.0 mg/kg/injection, schedule: Q01DX001 (ip), vehicle: saline with Tween-80 93 % of control

CCOC(=O)C(CCc1cc2ccccc2[nH]1)(C(=O)OCC)N1C(=O)c2ccccc2C1=O
inactive: [4] 94 % of control | [6] 89 % of control | [15] 89 % of control

O=C(CI)Nc1ccc(O)c2ccccc12
inactive: dose: 3.12 mg/kg/injection, schedule: Q04DX003 (ip), vehicle: water 111 % of control and 86 % of control | dose: 6.25 mg/kg/injection, schedule: Q01DX009 (ip), vehicle: water 99 % of control | dose: 6.25 mg/kg/injection, schedule: Q04DX003 (ip), vehicle: water 121 % of control and 91 % of control | dose: 12.5 mg/kg/injection, schedule: Q01DX009 (ip), vehicle: water 86 % of control | dose: 75.0 mg/kg/injection, schedule: Q04DX003 (ip), vehicle: water 93 % of control

CC(=O)CC(=O)Nc1ccc(Cl)cc1
inactive: [8] 105 % of control | dose: 177.0 mg/kg/injection, schedule: Q04DX002 (ip), vehicle: Klucel (hydroxypropylcellulose) (HPC) 102 % of control | [9] 86 % of control | dose: 266.0 mg/kg/injection, schedule: Q04DX002 (ip), vehicle: Klucel (hydroxypropylcellulose) (HPC) 92 % of control | [10] 95 % of control | dose: 600.0 mg/kg/injection, schedule: Q04DX002 (ip), vehicle: Klucel (hydroxypropylcellulose) (HPC) 92 % of control
